The source of these data is a melting point compilation (Tetko et al.).

One may read the melting point as the temperature, or range, at which the solid turns liquid. Regarding `CC1N=C(S)N(Cc2ccccc2)C1=O` (centres undefined), the melting point was below 17 °C.
For the compound `O=C(O)c1cc2c(OC(F)(F)F)cccc2[nH]1`, the melting point is 189 to 191 °C.
As for `Cc1cccc(C(=O)NO)c1O`, the figure is 139 to 141 °C; as for `NS(=O)(=O)c1ccc2c(c1)CC(C(=O)O)CO2` (centres undefined), 213 to 215 °C; as for `CC(C)(C)OC(=O)NC1CCC2CNCC21` (centres undefined), 109 to 111 °C.
With `OCc1ncc(Br)s1`, the melting point was in the range of 73 to 75 °C.
With `CCOC(C)c1nc(C(=O)O)cs1` (centres undefined), the melting point lay within 61 to 63 °C.
In the case of `O=C(O)COc1ccc2ccccc2c1Br`, the melting point lay within 158 to 160 °C.
Compound `Oc1ccc(-c2ccc(F)cc2)nn1` displayed a melting point of 269 to 271 °C.
`N#CCCn1cc(C(=O)O)c(-c2ccc([N+](=O)[O-])cc2)n1` registered a melting point of 220 to 222 °C.
The compound `CNc1ccncc1[N+](=O)[O-]` showed a melting point of 157 to 159 °C.
With `CC1CCC(Nc2ccccn2)CC1` (centres undefined), the melting point was 149 to 151 °C.
In turn, `Cn1c(=O)c2c(S)nc(C(C)(C)C)nc2n(C)c1=O` registered a melting point of 143 to 145 °C.
Compound `COc1cc(F)c(N)cc1F` came in with a melting point of 80 to 82 °C.
For the compound `Clc1cc(Cl)nc(C2CC2)n1`, the melting point lay within 39 to 41 °C.
On to `O=C1NC(=O)c2ncccc21`, for which the melting point fell in the range of 241 to 243 °C.
Consider `CNc1nc(-c2ccccc2)no1`, for which the melting point lay in the range of 124 to 126 °C.
Regarding `Nc1ccccc1NC(=O)c1ccccc1I`, the melting point is 189 to 191 °C.
`CC(C)(C)c1cc(NC(=O)CCl)on1`: the melting point fell in the range of 95 to 97 °C.
The compound `Cc1ccccc1-n1nnnc1S` had a melting point of 65 to 67 °C.
As for `O=C(O)CCn1ccccc1=O`, the figure is 146 to 148 °C; as for `COCC(C)n1c(SCC(=O)O)nnc1-c1ccccc1` (centres undefined), 139 to 141 °C.
Compound `Fc1cc(Br)cc2c(Cl)cc(C(F)(F)F)nc12` showed a melting point of 91 to 93 °C.
With `Cc1nn(C)c2c1NCCS2(=O)=O` the figure was 110 to 112 °C.
In turn, `CCOC(=O)c1ccccc1C#N` had a melting point of 59 to 61 °C.
For `O=C(O)C1CCN(S(=O)(=O)c2ccc3c(c2)CCCC3)CC1`, the melting point lay within 181 to 183 °C.
As to `Cc1cc(C=O)c(C)n1-c1ccc(Cl)cc1`, the melting point is 123 to 125 °C.
With `O=C(O)c1c[nH]cc1-c1ccccc1` the figure was 212 to 214 °C; with `O=C(O)c1cc(Br)nn1-c1ccc(F)cc1`, 177 to 179 °C.
With `O=C(O)c1ccc(NS(=O)(=O)c2ccc(Br)s2)cc1`, the melting point was in the range of 254 to 256 °C.
Take `O=C(O)Cc1cccc(OCc2cccnc2)c1`: the melting point was 139 to 141 °C.
Compound `Cc1c(C)c(C)c(S)c(C)c1C` registered a melting point of 62 to 64 °C.
`NCc1ccc(OCCOc2ccc(Cl)cc2)cc1`: the melting point is 130 to 132 °C.
As for `O=C(O)c1nnn(-c2cccc(C(F)(F)F)c2)c1C1CC1`, the figure is 169 to 171 °C; as for `COc1ccc(C)cc1NC(=O)CCl`, 73 to 75 °C.
For `O=C(O)C1CC(=O)N(c2ccccc2)C1` (centres undefined), the melting point lay in the range of 191 to 193 °C.
In turn, `Nc1cc(Br)ccc1O` had a melting point of 127 to 129 °C.
`Cc1cc(C)n(-c2ccc(CO)cc2)n1`: the melting point was below 17 °C.
`CC(Cl)C(=O)Nc1ccccc1[N+](=O)[O-]` (centres undefined) yielded a melting point of 71 to 73 °C.
Turning to `N#Cc1ccc(Cl)cc1NCc1ccccc1`, the melting point is 93 to 95 °C.
Turning to `Nc1ccc(CCCC(=O)O)cc1`, the melting point fell in the range of 121 to 124 °C.
`Nc1nc(=O)cn[nH]1` came in with a melting point of 249 to 251 °C.
Turning to `CC1Cc2cc(S(N)(=O)=O)cc(Cl)c2O1` (centres undefined), the melting point was 174 to 176 °C.
As for `CCOC(=O)c1sc(N(C)C)nc1C`, the figure is 39 to 41 °C; as for `CC1(C)NC(=O)N(CCCC(=O)O)C1=O`, 97 to 99 °C; as for `O=C(O)c1cc(C2CC2)nc2onc(-c3ccccc3)c12`, 213 to 215 °C.
As for `Cc1ccc(-c2nn(-c3ccccc3)cc2C=O)o1`, the melting point is 112 to 114 °C.
With `CCn1c(=O)[nH]c2ccccc21` the figure was 120 to 124 °C; with `CCc1nc(C)ncc1C(=O)O`, 158 to 160 °C; with `CC(C)C1=NN(C)C(=O)C1`, 110 to 112 °C.
`CCOc1nnc(Cl)c2ccccc12` came in with a melting point of 80 to 82 °C.
`Cc1csc(CC(=O)NN)n1`: the melting point was 73 to 75 °C.
`CC(C)c1ccc(OCCC(=O)O)cc1`: the melting point lay within 113 to 115 °C.
`O=C(O)c1cc2ccccn2c1` gave a melting point of 179 to 181 °C.
`COc1ccc(-c2nc(N)sc2-c2ccc(OC)cc2)cc1`: the melting point lay in the range of 207 to 209 °C.
With `O=C(O)c1ccc(Oc2ccccc2Br)nc1` the figure was 182 to 184 °C; with `Cc1nc(-c2ccccc2)oc1C(=O)O`, 244 to 246 °C; with `Cc1ccc(NC(=O)N(C)C)c(C(=O)O)c1`, 163 to 165 °C.
Compound `N#Cc1cc(F)cc(CO)c1` yielded a melting point of 59 to 61 °C.
`Cc1ccccc1NS(=O)(=O)c1ccc(C(=O)O)cc1` registered a melting point of 256 to 258 °C.
`Fc1ccc(COc2ccc(CCl)cc2)cc1` displayed a melting point of 57 to 59 °C.
With `Nc1cccc(C=CC(=O)O)c1` the figure was 173 to 175 °C; with `COC(=O)c1scnc1C1CC1`, 59 to 61 °C.
As for `COC(=O)C(O)c1cc(Cl)cc(Cl)c1` (centres undefined), the melting point is 80 to 82 °C.
As to `Nc1cccc(Sc2ccc(Cl)cc2)c1`, the melting point fell in the range of 58 to 60 °C.
As for `Sc1nnc(-c2ccc3c(c2)OCO3)o1`, the figure is 179 to 181 °C; as for `Cc1ccc(C=CCC(=O)O)cc1`, 105 to 107 °C.
As to `O=C(O)c1cc(OCC2CC2)c2ccccc2n1`, the melting point fell in the range of 164 to 166 °C.
`COC(=O)c1cccc(C)c1C#N` yielded a melting point of 69 to 71 °C.
The compound `CS(=O)(=O)Nc1ccc(C(=O)CBr)cc1` came in with a melting point of 178 to 180 °C.
With `O=S(=O)(Cl)c1ccc(Cl)c2c(Cl)cccc12` the figure was 115 to 117 °C.
`CC(C)(C)OC(=O)N1CC(=CC(=O)O)C1` gave a melting point of 140 to 142 °C.
Compound `O=C(O)CCc1nc(-c2ccccc2)no1` returned a melting point of 138 to 140 °C.
`Cn1cc([N+](=O)[O-])cc1C(=O)O`: the melting point was in the range of 199 to 201 °C.
For `Cc1cc(N)ccc1NS(C)(=O)=O`, the melting point was in the range of 141 to 143 °C.
Consider `COCc1nc(CC(=O)O)cs1`, for which the melting point lay in the range of 59 to 61 °C.
Compound `O=C(O)C1CCCCN1C(=O)c1cccnc1` (centres undefined) gave a melting point of 188 to 190 °C.
As for `COc1cc(C2(C(=O)O)CCC2)ccc1C`, the figure is 125 to 127 °C; as for `CC(C)C(Br)C(=O)NCC1CCCO1` (centres undefined), 53 to 55 °C.
With `O=Cc1csc(COc2ccccc2)n1` the figure was 76 to 78 °C; with `COc1ccc(CN2CCNCC2)cc1OC`, 27 to 40 °C.
In turn, `O=C(O)c1ccn[nH]1` returned a melting point of 212 to 216 °C.
`O=C1CCCN1CO` had a melting point of 79 to 81 °C.
For the compound `O=C(Nc1ccc(Br)cc1)C1CCNCC1`, the melting point was in the range of 209 to 211 °C.
`CN(C)Cc1ccc(-c2ccccc2C#N)cc1` displayed a melting point of 44 to 46 °C.
As for `Cn1c(C2CC2)nc2c1CCNC2`, the figure is 169 to 171 °C; as for `CC1(c2cccc(C#N)c2)NC(=O)NC1=O` (centres undefined), 202 to 204 °C.
In turn, `NNC(=O)c1ccc(F)cc1Cl` showed a melting point of 161 to 163 °C.
With `O=C(O)c1ccc(Oc2ccc(C(F)(F)F)cn2)cc1`, the melting point lay within 218 to 220 °C.
As to `CCn1ccnc1S`, the melting point is 78 to 80 °C.
For `Cc1nc(-c2ccccc2)sc1CCl`, the melting point fell in the range of 84 to 86 °C.
`N#CCCn1cc(C(=O)O)c(-c2cccc([N+](=O)[O-])c2)n1` returned a melting point of 242 to 244 °C.
Regarding `O=C(O)CCCOc1ccc(Cl)cc1`, the melting point lay in the range of 114 to 116 °C.
On to `C1CC(C2CCOCC2)CCN1`, for which the melting point is 52 to 54 °C.
For `Cc1cc(C)cc(Oc2ccc(N)cc2)c1`, the melting point lay within 55 to 57 °C.
Compound `Oc1ccc2ccccc2c1CN1CCOCC1` displayed a melting point of 52 to 54 °C.
`O=C(Nc1cccc(S(=O)(=O)C2CCCC2)c1)OCC(F)(F)F` displayed a melting point of 104 to 106 °C.
In turn, `Cc1nn(C)cc1C=O` gave a melting point of 46 to 48 °C.
With `Nc1ccnn1Cc1cccc2ccccc12` the figure was 136 to 140 °C; with `CC(=O)Nc1c(C)cccc1C(=O)O`, 204 to 206 °C.
Consider `O=C(O)CNC(=O)NCc1ccc(F)cc1`, for which the melting point was 169 to 171 °C.
On to `N#Cc1ccc(OCCO)cc1`, for which the melting point was in the range of 85 to 87 °C.
Take `Sc1nc(/C=C/c2ccccc2)n[nH]1`: the melting point is 277 to 279 °C.
With `Nc1c(F)cccc1C(=O)O` the figure was 182 to 186 °C.
For the compound `NC(=S)CF`, the melting point is 53 to 55 °C.
In turn, `Cn1c(=O)oc2ccc(N)cc21` came in with a melting point of 229 to 231 °C.
Take `O=C1NC(=O)N2CCCCC12` (centres undefined): the melting point was in the range of 114 to 116 °C.
In turn, `c1cc2[nH]ncc2cc1NC1CN2CCC1CC2` (centres undefined) displayed a melting point of 192 to 194 °C.
As to `FC(F)n1ccnc1COc1ccc(Br)cc1`, the melting point is 61 to 63 °C.
For the compound `NCc1cccnc1O`, the melting point was 89 to 91 °C.
For the compound `Cn1c(N)c(C(=O)CCl)c(=O)[nH]c1=O`, the melting point is 356 to 358 °C.
With `Nc1nnc(-c2ccncc2)o1` the figure was 239 to 241 °C; with `O=S(=O)(Cl)c1csc(-c2ccc(Cl)cc2)n1`, 93 to 95 °C.
With `O=Cc1csc(-c2cccs2)n1` the figure was 80 to 82 °C; with `NC(=S)c1cc([N+](=O)[O-])ccc1N`, 171 to 173 °C; with `COc1cccnc1N`, 76 to 78 °C.
The compound `O=[N+]([O-])c1ccc(S(=O)(=O)Cl)cc1Br` came in with a melting point of 59 to 61 °C.
`O=C(O)CS(=O)(=O)Cc1cccs1` registered a melting point of 107 to 109 °C.
For `CCOc1ccc(C(=O)NN)cc1OC`, the melting point lay in the range of 161 to 163 °C.
`CC(=O)c1nnn(-c2cccc3ncccc23)c1C` registered a melting point of 116 to 118 °C.
In turn, `CC(=O)CC(=O)c1ccncc1` registered a melting point of 63 to 65 °C.
Compound `O=C(CCl)NC1CCN(C(=O)C2CCCCC2)CC1` came in with a melting point of 133 to 135 °C.
Compound `CC(C)(C)c1ccc(C(=O)N=C=S)cc1` gave a melting point of 33 to 35 °C.
Turning to `COC(=O)c1cc2c(F)cc(Br)cc2[nH]1`, the melting point lay in the range of 190 to 192 °C.
